Patent publication US6716857B2, “Tetrahydropyridine derivatives acting on muscarinic acetylcholine receptors” (Korea Institute of Science and Technology, priority 2001, dated 2004)

Assays:
[1] = target: T1, human recombinant muscarinic receptor subtype 1 (M1) expressed in CHO cells (Homo sapiens, UniProt P11229); test: [3H]-N-methyl-scopolamine ([3H]-NMS) affinity screening test, M1; settings: inhibition of specific [3H]-NMS binding
T1 construct: purchased Biosignal, Canada; host or cells: CHO cells
T1 sequence (P11229 1-460): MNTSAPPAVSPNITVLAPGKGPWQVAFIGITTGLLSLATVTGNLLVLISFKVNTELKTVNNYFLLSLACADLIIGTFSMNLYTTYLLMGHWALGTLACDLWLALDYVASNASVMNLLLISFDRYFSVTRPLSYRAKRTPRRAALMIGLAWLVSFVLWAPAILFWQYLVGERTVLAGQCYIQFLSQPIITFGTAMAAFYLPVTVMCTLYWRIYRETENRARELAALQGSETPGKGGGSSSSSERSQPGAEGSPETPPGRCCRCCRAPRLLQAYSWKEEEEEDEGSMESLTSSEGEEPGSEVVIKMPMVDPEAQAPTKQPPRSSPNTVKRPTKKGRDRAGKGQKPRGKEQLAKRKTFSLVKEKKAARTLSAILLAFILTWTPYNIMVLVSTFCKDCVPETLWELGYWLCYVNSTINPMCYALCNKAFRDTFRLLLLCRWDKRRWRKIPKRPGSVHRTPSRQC
Excerpt: (§1) [^3H]-N-methyl-scopolamine ([^3H]-NMS) Affinity Screening Test
(§2) In order to exclude the interaction between subtypes, human recombinant muscarinic receptor subtypes 1, 2 and 3 expressed in CHO cells (M1, M2 and M3, Biosignal, Canada) were purchased and used as receptor sources. [^3H]-N-methyl-scopolamine (NEN, NET-636) was used as radioisotope labeled ligands, and atropine was used for the measurement of the non-specific binding ability. About 10 kinds of experimental apparatuses including Liquid Scintillation Counter (MicroBeta 1450 plus), Inotech cell harvester (96-well) were used.
(§3) In order to determine the effect of each compound on M1 and M2 receptors, the compounds were reacted with the receptors using radioisotope labeled ligands. After the reaction, the excess unbound ligands were removed by filtering with a glass fiber filter.
The freeze-stored receptors at −70° C. were suspended in test buffer solutions and then the screening test (BioRad protein) was carried out to determine the optimum concentration of the proteins. Thereafter, 50 μL of hot-ligands and 10 μL of test drugs were added to 96-well plate and 100 μL of 50 mM TRIS buffer (pH 7.2) containing 10 mM MgCl2 and 1 mM EDTA was added as a test buffer. The final volume of the reaction was 0.25 mL. The reaction was initiated by adding 100 μL of the diluted receptor suspension, and continued for 60 minutes on a shaking incubator at 27° C. This test was repeated four times. After 60 minutes, the reaction was terminated by adding cold TRIS buffer (0.5 mL, pH 7.4). The excess unbound radioisotopes were removed from the reaction mixture using Inotech cell harvester system. After washing the mixture, the radioactivity detected by the filter mat was measured using Liquid Scintillation Counter. As primary stage of the efficacy screening, the drugs at two concentrations (1 μM, 10 μM) were screened for their affinity for the receptors. […] Finally, IC50 values were calculated at the gradient of 10 concentrations. The test drugs were diluted sequentially for the required concentrations by dissolving them in dimethylsulfoxide (DMSO). […] From the saturation affinity screening test, Kd and Bmax values, and IC50 or Ki values of each test drugs were calculated by observing the non-linear regression using prism (Graphpad software Inc.,USA).
(§4) In the equilibrium affinity screening test, [^3H]-N-methyl-scopolamines at the gradient of 12 concentrations were used for the measurement of the binding ability (IC50). In the competition screening test, 1 nM of [^3H]-N-methyl-scopolamines, and the reference drugs at the gradient of 10 concentrations were used for the measurement. 4-DAMP-methyliodide, Pirenzepine, p-F-hexahydro-sila-defenidol, Methoctramine, and the like were used as reference drugs.

[2] = system: Oxo-M binding receptor of muscarinic receptors (rat forebrain synapse membranes); test: [3H]-oxotremorine-M ([3H]-Oxo-M) affinity screening test; settings: ratio IC50 NMS / IC50 Oxo-M; >180 full agonist, 14 to 130 partial agonist, 0.2 to 1.9 antagonist
Excerpt: (§5) [^3H]-oxotremorine-M ([^3H]-Oxo-M) Affinity Screening Test
(§6) The experimental principle was the same as [^3H]-NMS affinity screening test. […] The functions of the compounds may be determined by carrying out both of [^3H]-NMS and [^3H]-Oxo-M (oxotremorine) affinity screening tests to measure their respective IC50 values and calculating ratios (NMS/Oxo-M) of the measured IC50 values.
(§7) Synapse membranes for binding assay of Oxo-M binding receptor of muscarinic receptors were directly prepared and used in the laboratory as follows: male Sparague-Dawley rats (supplied from Laboratory Animal Center of Korea Research Institute of Chemical Technology, 250 to 300 g) were sacrificed by decapitation. The brain tissues were immediately removed from and the forebrain was obtained, which was sectioned into small pieces. After adding 10-fold amount of ice-cooled solution of sucrose (0.32M), the sectioned forebrain was homogenized using Teflon-glass homogenizer (Contorque, Eberbach) at 10 strokes and 500 rpm, centrifuged at 1000 g for 15 minutes, and then the supernatant was again centrifuged at 17000 g for 20 minutes. The pellet was stored at −20° C. and then used.
(§8) Before the pellet was used at this assay, it was suspended in 10 mL of 20 mM HEPES buffer (pH 7.4), again centrifuged at 17000 g for 15 minutes and then washed. Finally, the washed membrane was diluted in ice-cooled 20 mM HEPES buffer (pH 7.4) to the final concentration of 1:100 (wet wt/v) and used at this assay. All test samples were tested four times, and 20 mM HEPES buffer (pH 7.4) was used as a buffer for screening test. The final volume of reaction was 1 mL, and 24-well plate (costar 24-well) was used. 50 μL of hot-ligand (Oxo-M 5 nM) and 10 μL of test drugs were included therein, and the reaction was initiated by adding 750 μL of synapse membrane and continued at 30° C. for 40 minutes on the shaking incubator. 2 μM atropine was used for non-specific binding in all tests. After completion of the reaction, the receptor binding ligands and non-binding ligands were separated by using Inotech cell harvester (24-channels, Inotech, Switzerland) and filtering under reduced pressure (10×ice-cooled saline) with Wallac GF/C filter (pre-immersed in 0.05% polyethylene imine). The radioactivity of the receptor binding ligands was detected by Liquid Scintillation Counter (MicroBeta Plus, Wallac, Finland).
(§9) The test drugs were diluted sequentially for the required concentrations by dissolving them in dimethylsulfoxide (DMSO) and used in the test. […] From the saturated affinity screening test, Kd and Bmax values, and IC50 or Ki values of respective test drugs were calculated by observing the non-linear regression using prism (Graphpad software Inc., USA). The saturated affinity screening test was carried out in the range of 0.1 to 10 nM of [^3H]-Oxo-M ligand as described above.

[3] = system: T2, Oxo-M binding receptor of muscarinic receptors (rat forebrain synapse membranes); test: as above; settings: inhibition of specific [3H]-Oxo-M binding, under head M1; for M1 Oxo-M (1 μM) inhibition: compound at 1 μM
T2 construct: under head M1
Excerpt: as §5, §6, §7, §8, §9

[4] = target: T3, human recombinant muscarinic receptor subtype 2 (M2) expressed in CHO cells (Homo sapiens, UniProt P08172); test: [3H]-N-methyl-scopolamine ([3H]-NMS) affinity screening test, M2; settings: inhibition of specific [3H]-NMS binding, compound at 1 μM
T3 construct: purchased Biosignal, Canada; host or cells: CHO cells
T3 sequence (P08172 1-466): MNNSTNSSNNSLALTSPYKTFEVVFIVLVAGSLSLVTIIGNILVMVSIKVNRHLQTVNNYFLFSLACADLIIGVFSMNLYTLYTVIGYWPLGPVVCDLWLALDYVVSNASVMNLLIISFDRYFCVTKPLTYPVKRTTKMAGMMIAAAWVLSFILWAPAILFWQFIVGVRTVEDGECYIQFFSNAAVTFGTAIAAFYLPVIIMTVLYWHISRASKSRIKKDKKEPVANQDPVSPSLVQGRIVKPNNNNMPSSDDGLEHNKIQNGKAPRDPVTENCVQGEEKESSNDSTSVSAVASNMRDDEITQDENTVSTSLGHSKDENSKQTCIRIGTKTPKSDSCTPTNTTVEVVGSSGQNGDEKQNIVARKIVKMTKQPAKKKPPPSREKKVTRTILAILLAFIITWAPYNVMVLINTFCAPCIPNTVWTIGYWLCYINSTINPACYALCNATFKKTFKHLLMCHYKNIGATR
Excerpt: as §1, §2
as §3, with “filter. The amount of radioisotopes remaining on the washed filter plate was then measured to quantify the binding reaction between the receptors and the ligands and, from the result, the affinity of the drugs for the receptors was determined.” for “filter.”
The freeze-stored receptors at −70° C. were suspended in test buffer solutions and then the screening test (BioRad protein) was carried out to determine the optimum concentration of the proteins. Thereafter, 50 μL of hot-ligands and 10 μL of test drugs were added to 96-well plate and 100 μL of 50 mM TRIS buffer (pH 7.2) containing 10 mM MgCl2 and 1 mM EDTA was added as a test buffer. The final volume of the reaction was 0.25 mL. The reaction was initiated by adding 100 μL of the diluted receptor suspension, and continued for 60 minutes on a shaking incubator at 27° C. This test was repeated four times. After 60 minutes, the reaction was terminated by adding cold TRIS buffer (0.5 mL, pH 7.4). The excess unbound radioisotopes were removed from the reaction mixture using Inotech cell harvester system. After washing the mixture, the radioactivity detected by the filter mat was measured using Liquid Scintillation Counter. As primary stage of the efficacy screening, the drugs at two concentrations (1 μM, 10 μM) were screened for their affinity for the receptors. As secondary stage, drugs showing remarkable efficacies were determined at the lower concentrations. Finally, IC50 values were calculated at the gradient of 10 concentrations. The test drugs were diluted sequentially for the required concentrations by dissolving them in dimethylsulfoxide (DMSO). […] From the saturation affinity screening test, Kd and Bmax values, and IC50 or Ki values of each test drugs were calculated by observing the non-linear regression using prism (Graphpad software Inc.,USA).
as §4

C#CCON=C(CCN1CCCC1=O)C1=CCCN(C)C1 [Example 18, 1-[3-(1-methyl-1,2,5,6-tetrahydro-pyridin-3-yl)-3-propyn-2-yloxyimino-propyl]-pyrrolidin-2-one]
IC50 [1]: 13400 nM | inhibition at 10 µM ([1]; compound at 10 μM): 42.9% | NMS/Oxo-M (ratio of IC50 values) [2]: 35 | M1 Oxo-M (1 μM) inhibition [3]: 75.3% | IC50 [3]: 381 nM | inhibition at 1 µM [4]: 26.8%

CN1CCC=C(C(CCN2CCCC2=O)=NO)C1 [Example 16, 1-[3-hydroxyimino-3-(1-methyl-1,2,5,6-tetrahydro-pyridin-3-yl)-propyl]-pyrrolidin-2-one]
IC50 [1]: 17400 nM | inhibition at 10 µM ([1]; compound at 10 μM): 39.5% | NMS/Oxo-M (ratio of IC50 values) [2]: 236 | M1 Oxo-M (1 μM) inhibition [3]: 92.4% | IC50 [3]: 74 nM | inhibition at 1 µM [4]: 22.6%

CN1CCC=C(C(CN2CCCC2=O)=NO)C1 [Example 26, 1-[2-hydroxyimino-2-(1-methyl-1,2,5,6-tetrahydro-pyridin-3-yl)-ethyl]-pyrrolidin-2-one]
IC50 [1]: 3630 nM | inhibition at 10 µM ([1]; compound at 10 μM): 87.6% | NMS/Oxo-M (ratio of IC50 values) [2]: 4078 | M1 Oxo-M (1 μM) inhibition [3]: 96.9% | IC50 [3]: 0.89 nM | inhibition at 1 µM [4]: 94.1%

COC(=O)C1=CCCN(C)C1 [Arecoline, reference compound]
M1 Oxo-M (1 μM) inhibition [3]: 85.5% | IC50 [3]: 140 nM

CN1CCC=C(C#CCN2CCCC2=O)C1 [Example 30, 1-[3-(1-methyl-1,2,5,6-tetrahydro-pyridin-3-yl)-propyn-2-yl]-pyrrolidin-2-one]
IC50 [1]: 10800 nM | inhibition at 10 µM ([1]; compound at 10 μM): 58.5% | NMS/Oxo-M (ratio of IC50 values) [2]: 774 | M1 Oxo-M (1 μM) inhibition [3]: 96.6% | IC50 [3]: 14 nM | inhibition at 1 µM [4]: 42.3%

C#CCON=C(CN1CCCC1=O)c1cccnc1 [Example 24, 1-(2-propyn-2-yloxyimino-2-pyridin-3-yl-ethyl)-pyrrolidin-2-one]
M1 NMS (10 μM) inhibition ([1]; compound at 10 μM): 0% | NMS/Oxo-M (ratio of IC50 values) [2]: 306 | M1 Oxo-M (1 μM) inhibition [3]: 58.0% | IC50 [3]: 327 nM | M2 NMS (1 μM) inhibition [4]: 0%

CN1CCC=C(C(CN2CCCC2=O)=NOCc2ccccc2)C1 (mixture of isomers) [Example 29, 1-[2-benzyloxyimino-2-(1-methyl-1,2,5,6-tetrahydro-pyridin-3-yl)-ethyl]-pyrrolidin-2-one]
IC50 [1]: 79200 nM | inhibition at 10 µM ([1]; compound at 10 μM): 0% | NMS/Oxo-M (ratio of IC50 values) [2]: 486 | M1 Oxo-M (1 μM) inhibition [3]: 78.4% | IC50 [3]: 163 nM | inhibition at 1 µM [4]: 0%
